Assay results taken from the NIST ThermoML archive (doi:10.1021/je300377a).
± gives the expanded uncertainty stated by the source.

Assay: molar heat capacity at constant pressure
Details: 101.33 kPa, Liquid

Compound | molar heat capacity at constant pressure (265.04 K) | molar heat capacity at constant pressure (275.12 K) | molar heat capacity at constant pressure (295.03 K) | molar heat capacity at constant pressure (305.03 K) | molar heat capacity at constant pressure (315.07 K) | molar heat capacity at constant pressure (325.13 K) | molar heat capacity at constant pressure (335.04 K) | molar heat capacity at constant pressure (345.11 K) | molar heat capacity at constant pressure (355 K) | molar heat capacity at constant pressure (365.05 K) | molar heat capacity at constant pressure (375.09 K) | molar heat capacity at constant pressure (385.14 K) | molar heat capacity at constant pressure (275 K) | molar heat capacity at constant pressure (285.01 K) | molar heat capacity at constant pressure (295.01 K) | molar heat capacity at constant pressure (335.02 K) | molar heat capacity at constant pressure (345.02 K) | molar heat capacity at constant pressure (375.01 K) | molar heat capacity at constant pressure (355.01 K) | also measured
CCCC[N+]1(C)CCCC1.O=S(=O)([N-]S(=O)(=O)C(F)(F)F)C(F)(F)F | 472.25 ± 230 J/K/mol | 484.93 ± 230 J/K/mol | 498.44 ± 240 J/K/mol | 507.31 ± 240 J/K/mol | 515.76 ± 250 J/K/mol | 524.63 ± 250 J/K/mol | 531.39 ± 260 J/K/mol | 539.84 ± 260 J/K/mol | 547.87 ± 260 J/K/mol | 554.62 ± 270 J/K/mol | 563.07 ± 270 J/K/mol | 576.17 ± 280 J/K/mol | – | – | – | – | – | – | – | molar heat capacity at constant pressure (285.06 K): 492.11 ± 240 J/K/mol
CCCCCCCCn1cc[n+](C)c1.O=S(=O)([N-]S(=O)(=O)C(F)(F)F)C(F)(F)F | – | – | – | – | – | – | – | – | – | – | – | – | 628.1 ± 300 J/K/mol | 636.18 ± 310 J/K/mol | 643.79 ± 310 J/K/mol | 675.65 ± 320 J/K/mol | 684.21 ± 330 J/K/mol | 720.34 ± 350 J/K/mol | – | molar heat capacity at constant pressure (265.02 K): 621.44 ± 300 J/K/mol; molar heat capacity at constant pressure (305.02 K): 651.87 ± 310 J/K/mol; molar heat capacity at constant pressure (315.02 K): 660.43 ± 320 J/K/mol; molar heat capacity at constant pressure (325.02 K): 668.51 ± 320 J/K/mol; molar heat capacity at constant pressure (355.02 K): 694.67 ± 330 J/K/mol; molar heat capacity at constant pressure (360 K): 706.08 ± 340 J/K/mol; molar heat capacity at constant pressure (385.03 K): 737.93 ± 350 J/K/mol
CCCCCCCC[N+]1(C)CCCC1.O=S(=O)([N-]S(=O)(=O)C(F)(F)F)C(F)(F)F | – | – | – | – | 658.44 ± 320 J/K/mol | – | 679.49 ± 330 J/K/mol | 690.02 ± 330 J/K/mol | – | 711.08 ± 340 J/K/mol | – | 732.13 ± 350 J/K/mol | – | – | – | – | – | 721.6 ± 350 J/K/mol | 700.55 ± 340 J/K/mol | molar heat capacity at constant pressure (265.06 K): 605.8 ± 290 J/K/mol; molar heat capacity at constant pressure (275.13 K): 616.33 ± 300 J/K/mol; molar heat capacity at constant pressure (285.07 K): 626.86 ± 300 J/K/mol; molar heat capacity at constant pressure (295.04 K): 636.43 ± 310 J/K/mol; molar heat capacity at constant pressure (305.04 K): 647.91 ± 310 J/K/mol; molar heat capacity at constant pressure (325.14 K): 668.97 ± 320 J/K/mol
CCCCCCCC[n+]1ccccc1.O=S(=O)([N-]S(=O)(=O)C(F)(F)F)C(F)(F)F [1-octylpyridinium bis((trifluoromethyl)sulfonyl)amide] | 582.55 ± 280 J/K/mol | 597.2 ± 290 J/K/mol | 620.82 ± 300 J/K/mol | 636.89 ± 310 J/K/mol | 652.95 ± 310 J/K/mol | 669.02 ± 320 J/K/mol | – | – | 707.76 ± 340 J/K/mol | 721.93 ± 350 J/K/mol | 738.47 ± 350 J/K/mol | – | – | – | – | – | – | – | – | molar heat capacity at constant pressure (285.05 K): 609.01 ± 290 J/K/mol; molar heat capacity at constant pressure (335.03 K): 681.77 ± 330 J/K/mol; molar heat capacity at constant pressure (345.1 K): 694.53 ± 330 J/K/mol; molar heat capacity at constant pressure (385.13 K): 755.95 ± 360 J/K/mol
CCCCCCCC[N+]1(CC)CCCCC1.O=S(=O)([N-]S(=O)(=O)C(F)(F)F)C(F)(F)F | – | – | – | – | – | – | – | – | – | – | – | – | 719.33 ± 350 J/K/mol | 730.47 ± 350 J/K/mol | 743.64 ± 360 J/K/mol | 814.56 ± 390 J/K/mol | 829.25 ± 400 J/K/mol | 882.44 ± 420 J/K/mol | 844.96 ± 410 J/K/mol | molar heat capacity at constant pressure (265.01 K): 703.63 ± 340 J/K/mol; molar heat capacity at constant pressure (305.01 K): 763.4 ± 370 J/K/mol; molar heat capacity at constant pressure (315.01 K): 782.14 ± 380 J/K/mol; molar heat capacity at constant pressure (325.01 K): 799.37 ± 380 J/K/mol; molar heat capacity at constant pressure (365 K): 868.26 ± 420 J/K/mol; molar heat capacity at constant pressure (385.02 K): 903.72 ± 430 J/K/mol
